The text below walks through data of patent publication US11447531B2, “Cleavable peptides and insecticidal and nematicidal proteins comprising same” (Vestaron Corporation, priority 2016, dated 2022).

For experiment [1], the system named is gut extract isolated from Southern Corn Rootworm. The experiment is classed as biochemical, Diabrotica undecimpunctata.
In the next experiment the test system is CEW gut extract. It counts as biochemical, Helicoverpa zea.
In experiment [2] the target is T1, pepsin from porcine gastric mucosa (Sus scrofa, UniProt P00791).
T1 construct: from tissue; host or cells: porcine gastric mucosa
T1 sequence (P00791 60-385): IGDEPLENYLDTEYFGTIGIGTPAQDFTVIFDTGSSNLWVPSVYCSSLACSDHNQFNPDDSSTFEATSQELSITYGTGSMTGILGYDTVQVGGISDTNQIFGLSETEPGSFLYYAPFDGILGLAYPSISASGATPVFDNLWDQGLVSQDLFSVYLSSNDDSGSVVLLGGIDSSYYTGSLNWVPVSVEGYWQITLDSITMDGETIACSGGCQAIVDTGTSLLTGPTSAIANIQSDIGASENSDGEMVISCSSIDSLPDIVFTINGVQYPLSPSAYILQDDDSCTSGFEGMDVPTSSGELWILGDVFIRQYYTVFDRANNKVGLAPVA
It counts as biochemical.

The target in experiment [3] is T2, pepsin or simulated human gastric fluid (SGF) (Sus scrofa, UniProt P00791).
T2 construct: purchased Sigma P6887
T2 sequence (P00791 60-385): as above
It counts as biochemical.

Experiment [4] concerns insect and/or nematode protease (X condition). Put plainly: Round 2 and spacer FRET cleavage, X (insect) cleavage condition. It counts as biochemical. Particulars: Round 2 FRET, X-Y combinations. The procedure:
Round 2 data from FRET molecules that represented a subset of binary combinations based on the observed top hits in Round 1 provided a hierarchical ranking of the various binary combinations. Round 2 FRET molecules were synthesized, resuspended, and tested in cleavage enzyme assays as described above in Round 1. Many combinations of binary cleavable linking peptides were tested against LEP, COLEOP and SGF conditions.
Data from the Round 2 FRET that exemplifies the combination of both X and Y cleavability in a binary or tertiary peptide are presented in Table 6.
To screen for potential spacers, FRET peptides were ordered as the binary peptide ALKLFVZ1Z2 and varied amino acids in positions Z1 and Z2. Some of the amino acids were screened as individuals and some were screened as pools. The peptides were re-suspended using 50% acetonitrile in water at a concentration of 2 μM of each peptide. For the one containing more than one FRET peptide, they were re-suspended so that each peptide was as 2 μM (assuming an equal portion of each one). These were then re-suspended and screened as described above for Round 1. The data does confirm that some amino acids in the Z position are more favorable than others. […] The greater the value of the slope in Table 7 the greater the activity of the amino acid when part of a spacer. The column in Table 7 labeled “Slope” indicates the speed of cleavage of the Linker.

As to IFVRLRGS (cleavable linker), in experiment [1], the “cleavage of linking peptide in SCR gut extract (His-tagged western blot)” value is “digestion and disappearance of the protein band”. The “cleavage of linking peptide in CEW gut extract (His-tagged western blot)” value in the experiment on CEW gut extract was “digestion and disappearance of the protein band”. Further, the “cleavage of linking peptide in SGF (His-tagged western blot)” value (“cleavage of linking peptide in SGF” below) in experiment [2] was “digestion and disappearance of the protein band”.
ALKLFVGS (cleavable linker): the “% of Max Slope, Y” value in experiment [3] is listed as 88%. The “% of Max Slope, X” value in experiment [4] is on record as 100%. Moreover, in experiment [1], the “cleavage of linking peptide in SCR gut extract (His-tagged western blot)” value was “digestion and disappearance of the protein band”. In addition, the “cleavage of linking peptide in CEW gut extract (His-tagged western blot)” value in the experiment on CEW gut extract was “digestion and disappearance of the protein band”. Also, in experiment [2], the “cleavage of linking peptide in SGF” value was “digestion and disappearance of the protein band”.
Regarding LRLFVGS (cleavable linker), the “% of Max Slope, Y” value in experiment [3] is reported as 75%. For the same substance, the “% of Max Slope, X” value in experiment [4] came out at 74%.
Take LFVRLRGS (cleavable linker): the “% of Max Slope, Y” value in experiment [3] is on record as 74%. Further, in experiment [4], the “% of Max Slope, X” value worked out at 94%.
In the case of “IGER (listed as Pisum sativum) [control peptide that is only cleaved in insects, reference compound]”, in experiment [1], the “cleavage of linking peptide in SCR gut extract (His-tagged western blot)” value is recorded as “retention of the intact protein band”. For the same substance, in the experiment with CEW gut extract, the “cleavage of linking peptide in CEW gut extract (His-tagged western blot)” value is “only cleaves in the CEW gut extract”. Moreover, the “cleavage of linking peptide in SGF” value in experiment [2] is given as “retention of the intact protein band”.
Take LFVALKGS (cleavable linker): the “% of Max Slope, Y” value in experiment [3] is 76%. The “% of Max Slope, X” value in experiment [4] came out at 92%.
The like results for IFVALKGS (cleavable linker) were, in that order, 88% and 69%.
